In patent US20090239884A1, “Methods of Treating Inflammation” (priority 2006, published 2009):

Experiments:
CD4+CD25− T cells = experiment: qRT-PCR of PDE and cytokine genes in anti-CD3 activated CD4+CD25− T cells; type: cell-based, mouse; settings: for changes in PDE gene expression: 20 minutes; for changes in PDE gene expression / increase of PDE4B gene expression: IBMX 300 μM; for PDE3B, 7A, and 8A expression: after DP and IBMX treatment
Protocol: Cell Culture. Mouse splenocytes were prepared and cultured as described. (Dong H, Osmanova V, Epstein P M, Brocke S. Phosphodiesterase 8 (PDE8) regulates chemotaxis of activated lymphocytes. Biochem Biophys Res Commun. 2006; 345:713-719) […] were separated from CD4^+CD25^+ Treg cells using a CD4^+CD25^+ Regulatory T Cell Isolation Kit (Miltenyi Biotec, Auburn, Calif.) and activated for 18 hours on plate-bound anti-CD3 mAb (5 μg/ml). Cells of the murine brain endothelium-derived cell line bEnd.3 (ATCC, Manassas, Va.) were seeded into 24-well plates (Costar, Cambridge, Mass.) in DMEM supplemented with 100 U/ml penicillin, […] streptomycin, 2 mM LGlutamine, and 10% fetal bovine serum (all Gibco, Carlsbad, Calif.). bEnd.3 assays were performed on confluent bEnd.3 monolayers.
Quantitative real-time RT-PCR analysis. 10 ng cDNA, or 2 μl cDNA for LCM studies, was amplified by qRT-PCR in a 25 μl reaction using SYBR Green PCR Master Mix (Applied Biosystems, Foster City, Calif.). Primers were designed using Primer Express software v3.0 and primer efficiency verified by slope analysis to be 100%±2.5%. qRT-PCR was performed using an ABI 7500 fast system and data analyzed using the Δ^ct method (SDS software v3.0). Amplicon sizes were approximately 100 bp.
Cell treatment. Confluent bEnd.3 monolayers were incubated with 200 ng/ml TNF-α (Peprotech, Rocky Hill, N.J.) at 37° c. for 2 hours. […] The selective PDE3 and PDE4 inhibitors motapizone and piclamilast were supplied by Drs. Christoff Zitt and Armin Hatzelmann (Altana Pharma, Konstanz, Germany). Con A-activated splenocytes or CD4^+CD25^− T cells activated with plate-bound anti-CD3 mAb were treated with the same reagents for 20, 45, or 90 minutes.
In FIGS. 21A-21B, purified CD4^+CD25^− T cells were activated with plate-bound anti-CD3 mAb for 18 hours followed by incubation with IBMX (300 μM), DP (100 μM) or vehicle (0.1% DMSO) for (A) 20 or (B) 90 minutes. PDE (A, Bi) and cytokine (Bii) gene expression was then analyzed by qRT-PCR with the data presented as the mean+SEM of triplicate determinations. The results are representative of 2 independent experiments (*p<0.05, **p<0.001; one way ANOVA followed by Bonferroni t-test).

[1] = test system: unstimulated mouse splenocytes; experiment: transwell chemotaxis assay in response to CXCL12, unstimulated splenocytes; type: cell-based; settings: Mus musculus, Splenocyte, 4 h; read-out: inhibition of CXCL12-induced migration
Protocol: Isolation of murine splenocytes. Splenocytes were isolated from 6-8 week old C57BL/6 mice obtained from Jackson Laboratories (Bar Harbor, Me.). Spleens were removed and a single-cell suspension prepared using 40 μm cell strainers (Fisher Scientific). Cells were washed with RPMI 1640 medium supplemented with 5% fetal bovine serum, 2 mM L-glutamine, 100 U/ml penicillin and […] (all from GIBCO). Red blood cells were lysed using standard lysis buffer (0.15M NH4Cl, 10mM KHCO3, 0.1 mM EDTA PH 7.4). Cells were then washed and used in chemotaxis assays either as unstimulated cells or after stimulation with Con A ([…]) as indicated.
Preparation of Test Reagents. […] This concentration of DMSO had no effect on migration of splenocytes in the presence or absence of CXCL12. CXCL12 was prepared as a 100 μg/ml stock solution in PBS+0.1% BSA, Con A was prepared as a stock of 2.5 mg/ml in PBS, and dibutyryl cAMP and Rp-cAMPS were prepared as 50 mM stock solutions in water, and these reagents were diluted directly into the chemotaxis assays.
Chemotaxis Assay. Chemotaxis assays were done in 24-well transwell plates with a pore size of 5 μm (Costar, Corning). Splenocytes were placed in medium at a concentration of 3×10^6 cells/ml. Where test agents were used, splenocytes were pretreated with the agent or vehicle for 45 to 60 min, following which 100 μl of the splenocyte suspension was placed into the upper chamber of transwell plates, and the lower chamber was filled with 600 μl of medium. When added to induce migration, CXCL12 (250 ng/ml) was added to the lower chamber only. Other test reagents were added as indicated to both the upper and lower chambers. After 4 hours of incubation at 37° C. in 5% CO2, transwell inserts were gently removed and the number of cells that migrated into the lower chamber were counted by withdrawing 500 μl of lower chamber medium, mixing it with 10 ml of buffer and counting the cells on a Coulter Counter (Beckman Coulter Z series). Where results are expressed as % of CXCL12-stimulated migration, this was calculated as follows: (cells migrated in presence of CXCL12 and test reagent—cells migrated in medium alone)/(cells migrated in presence of CXCL12-cells migrated in medium alone)×100. Experimental points for all chemotaxis assays were performed in triplicate.
Splenocytes isolated from mice were assayed for migration in response to CXCL12 (250 ng/ml), either directly (unstimulated) or following 48 hr of incubation with 3 μg/ml Con A (stimulated), as described in Methods. To test for effects of dibutyryl cAMP, cells were pretreated with dibutyryl cAMP (500 μM) for 45-60 min prior to beginning the chemotaxis assay, and the assays were conducted with dibutyryl cAMP (db-cAMP) present (500 μM) in both the upper and lower chambers of the transwell plates. Data plotted are derived from a single experiment performed in triplicate. *p<0.001; **p<0.02.

| Compound | changes in PDE gene expression (CD4+CD25− T cells; DP 100 μM) | decrease of IL-2 gene expression (CD4+CD25− T cells; 90 minutes, DP 100 μM) [fold] | decrease of TNF-α gene expression (CD4+CD25− T cells; 90 minutes, DP 100 μM) [fold] | increase of PDE4B gene expression (CD4+CD25− T cells; 90 minutes, DP 100 μM) [fold] | PDE3B, 7A, and 8A expression (CD4+CD25− T cells) | inhibition at 100 µM [1] [%] | inhibition at 300 µM [1] [%] |
| --- | --- | --- | --- | --- | --- | --- | --- |
| OCCN(CCO)c1nc(N2CCCCC2)c2nc(N(CCO)CCO)nc(N3CCCCC3)c2n1 [Dipyridamole, 2,2′,2″,2′″-(4,8-di(piperidin-1-yl)pyrimido[5,4-d]pyrimidine-2,6-diyl)bis(azanetriyl)tetraethanol] | No significant changes | 2 | 3 | 8 | unchanged | 55 |  |
| CC(C)Cn1c(=O)n(C)c(=O)c2[nH]cnc21 [IBMX, 3-isobutyl-1-methylxanthine] | No significant changes |  |  | 5 | unchanged |  | 57 |
